Experimental findings from patent US4740233A, “Substituted 1,2,4-triazolo[1,5-a]-pyrimidine-2-sulfonamides and compositions and methods of controlling undesired vegetation and suppressing the nitrification of ammonium nitrogen in soil” (The Dow Chemical Company, priority 1986, dated 1988) are described below.

For experiment [1], the system named is nitrification of ammonium nitrogen. Description: Suppression of nitrification of ammonium nitrogen in soil. Particulars: 27° C. The procedure, abridged:
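Value is % NH4-N remaining after a two-week, 27° C incubation of treated soil held at 1/3 bar tension moisture. Nitrate was measured with an ion-selective electrode after extraction with ammonium sulfate solution and 10 min shaking.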

The test system of another experiment is annual morning glory. Description: Postemergent control of plant species. Format: in vivo, Ipomoea spp. Conditions: Ipomoea, post-emergence, 336 h, read-out: percent postemergent control. In outline: (§1)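 Growth reduction versus untreated plants of each species, scored about two weeks after spraying, defines control here. Test emulsions contained compound in acetone diluted 1:1 into water bearing 0.1% surfactant; plants were treated at the 2-4 leaf stage in the greenhouse.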

The subject of the next experiment is barnyardgrass. Description: Postemergent control of plant species. Type of experiment: in vivo, Echinochloa crusgalli. Conditions: Echinochloa crus-galli, post-emergence, 336 h, read-out: percent postemergent control. The procedure, abridged: as §1
Another experiment deals with cotton. The experiment is described as follows: Postemergent control of plant species. Type of experiment: in vivo, Gossypium spp. Particulars: Gossypium hirsutum, post-emergence, 336 h, read-out: percent postemergent control. The procedure, abridged: as §1
For the next experiment, the system named is johnson grass. Description: Postemergent control of plant species. Particulars: Sorghum halepense, post-emergence, 336 h, read-out: percent postemergent control. Format: in vivo, Sorghum halepense. The procedure, abridged: as §1
The next experiment has as its system crabgrass. The experiment is described as follows: Postemergent control of plant species. Type of experiment: in vivo, Digitaria spp. Particulars: Digitaria sanguinalis, post-emergence, 336 h, read-out: percent postemergent control. The procedure, abridged: as §1
A further experiment has as its system wheat. Description: Postemergent control of plant species. Particulars: Triticum aestivum, post-emergence, 336 h, read-out: percent postemergent control. Format: in vivo, Triticum aestivum. The procedure, abridged: as §1
The next experiment relates to rice. Description: Postemergent control of plant species. Particulars: Oryza sativa, post-emergence, 336 h, read-out: percent postemergent control. Format: in vivo, Oryza sativa. In outline:
as §1

The subject of a further experiment is rape. Description: Postemergent control of plant species. Format: in vivo, Brassica napus. Particulars: Brassica napus, post-emergence, 336 h, read-out: percent postemergent control. The procedure, abridged:
as §1

A further experiment has as its system sugar beet. The experiment is described as follows: Postemergent control of plant species. Format: in vivo, Beta saccharifera. Conditions: Beta vulgaris, post-emergence, 336 h, read-out: percent postemergent control. In outline:
as §1

The test system of a further experiment is sorghum. The experiment is described as follows: Postemergent control of plant species. Format: in vivo, Sorghum vulgare. Conditions: Sorghum, post-emergence, 336 h, read-out: percent postemergent control. The procedure, abridged:
as §1

Another experiment relates to cocklebur. Description: Postemergent control of plant species. Format: in vivo, Xanthium spp. Conditions: Xanthium strumarium, post-emergence, 336 h, read-out: percent postemergent control. The procedure, abridged:
as §1

The subject of another experiment is yellow foxtail. Description: Postemergent control of plant species. Format: in vivo, Setaria lutescens. Conditions: Setaria, post-emergence, 336 h, read-out: percent postemergent control. The procedure, abridged: as §1
In a further experiment the test system is jimsonweed. Description: Postemergent control of plant species. Type of experiment: in vivo, Datura stramonium. Particulars: Datura stramonium, post-emergence, 336 h, read-out: percent postemergent control. In outline: as §1
For another experiment, the system named is pigweed. Description: Postemergent control of plant species. Format: in vivo, Amaranthus spp. Particulars: Amaranthus retroflexus, post-emergence, 336 h, read-out: percent postemergent control. The procedure, abridged: as §1
The next experiment has as its system velvetleaf. Description: Postemergent control of plant species. Particulars: Abutilon theophrasti, post-emergence, 336 h, read-out: percent postemergent control. Type of experiment: in vivo, Abutilon theophrasti. In outline: as §1
Another experiment deals with wild oats. Description: Postemergent control of plant species. Format: in vivo, Avena fatua. Conditions: Avena fatua, post-emergence, 336 h, read-out: percent postemergent control. In outline: as §1
The test system of a further experiment is corn. The experiment is described as follows: Postemergent control of plant species. Format: in vivo, Zea mays. Conditions: Zea mays, post-emergence, 336 h, read-out: percent postemergent control. The procedure, abridged: as §1
The next experiment deals with soybean. Description: Postemergent control of plant species. Format: in vivo, Glycine max. Particulars: Glycine max, post-emergence, 336 h, read-out: percent postemergent control. In outline: as §1
The test system of the next experiment is yellow nutsedge. The experiment is described as follows: Postemergent control of plant species. Type of experiment: in vivo, Cyperus esculentus. Particulars: Cyperus, post-emergence, 336 h, read-out: percent postemergent control. In outline: as §1

Consider `Cc1cc(C)n2nc(S(=O)(=O)Nc3c(C)nn(C)c3C(F)(F)F)nc2n1` [Compound 247], for which the “% NH4-N Remaining After 2 Weeks Incubation” value was 58% in [1] (0.06 ppm), 47% in [1] (0.25 ppm), 58% in [1] (1 ppm) and 82% in [1] (4 ppm). Further, the pest or weed control at 500 ppm was found to be 0% with annual morning glory; 0% in the experiment on barnyardgrass; 0% in the experiment on johnson grass; 0% with crabgrass; 20% with cocklebur; 0% with yellow foxtail. Also, the pest or weed control at 500 ppm in the experiment on jimsonweed came out at 20%; with pigweed, 70%; in the experiment on velvetleaf, 40%; in the experiment with wild oats it was 0%; in the experiment on yellow nutsedge it was 0%. In addition, the plant injury at 500 ppm with cotton worked out at 0%; in the experiment with wheat, 0%; with rice, 0%; in the experiment on rape, 70%; in the experiment with sugar beet, 70%; in the experiment with sorghum it was 0%. Moreover, the plant injury at 500 ppm in the experiment with corn came to 0%; with soybean, 70%.
